Test results taken from patent publication US7504203B2 (priority 2002, dated 2009).

Molecular target: GST-fused SCDH enzyme expressed from the standard strain cDNA (Pyricularia oryzae, UniProt P56221)
Assay type: biochemical, rice blast fungus (Pyricularia oryzae)

GST-fused SCDH enzyme expressed from the standard strain cDNA, sequence (P56221 whole entry, looked up, the tested form may be a part): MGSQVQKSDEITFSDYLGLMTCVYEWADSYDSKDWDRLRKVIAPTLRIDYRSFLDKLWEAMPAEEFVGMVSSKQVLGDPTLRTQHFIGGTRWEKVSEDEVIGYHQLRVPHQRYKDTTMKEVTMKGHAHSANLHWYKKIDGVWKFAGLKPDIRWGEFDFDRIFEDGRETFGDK

CCC1(C(=O)N[C@H](C)c2ccc(Cl)cc2)C(C)C1(Cl)Cl (stereo partly shown) [carpropamid]
drug sensitivity compared with SCDH enzyme in crude enzyme solution from rice blast fungus: exhibited the same drug sensitivity
